Experimental findings from ChEMBL document CHEMBL4476866, “Pyrrol-1-yl benzoic acid derivatives useful as myc inhibitors” (2015) are described below.

For experiment [1], the target named is T1, Myc proto-oncogene protein (Homo sapiens, UniProt P01106). The experiment is described as follows: Inhibition of human c-Myc assessed as reduction in c-Myc/Max/Ebox DNA complex formation using pre-formed complex of c-Myc and biotinylated DNA containing single Ebox-sequence followed by compound addition and further addition of his6-tagged c-Max and incubated for 2 hrs by AlphaScreen assay. Conditions: read-out: IC50.
T1 sequence (P01106 whole entry): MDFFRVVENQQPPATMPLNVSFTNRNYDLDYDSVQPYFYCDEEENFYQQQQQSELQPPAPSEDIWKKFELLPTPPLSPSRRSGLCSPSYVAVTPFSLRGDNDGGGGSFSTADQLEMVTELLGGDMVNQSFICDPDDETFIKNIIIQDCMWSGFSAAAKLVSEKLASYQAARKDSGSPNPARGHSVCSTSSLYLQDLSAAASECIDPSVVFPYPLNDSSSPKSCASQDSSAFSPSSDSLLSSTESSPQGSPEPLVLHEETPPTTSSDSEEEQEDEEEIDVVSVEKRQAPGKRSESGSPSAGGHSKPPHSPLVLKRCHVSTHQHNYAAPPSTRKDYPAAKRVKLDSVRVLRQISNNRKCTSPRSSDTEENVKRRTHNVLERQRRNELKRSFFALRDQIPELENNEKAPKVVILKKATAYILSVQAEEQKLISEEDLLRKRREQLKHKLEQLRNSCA

In experiment [2] the test system is NCI-H2171. The experiment is described as follows: Cytotoxic activity against human NCI-H2171 cells assessed as reduction in cell viability incubated for 3 days by ATPlite assay. The class given is functional, cell-based. The note with it: nci-h2171. For orientation: Cellular ATP, detected with luciferase, serves as a proxy for viable cell number.
Another experiment concerns MM1.S. The experiment can be described thus: Cytotoxic activity against human MM1S cells assessed as reduction in cell viability incubated for 3 days by ATPlite assay. The class given is functional, cell-based. Conditions: mm1.s.
A short description of experiment [3]: Induction of Ebox DNA (unknown origin) intercalation assessed as reduction in c-Myc/Max/Ebox DNA complex formation at 1.7 to 15 uM by gel shift based orthogonal biochemical assay. (In general: Mobility shift assays separate free from complexed probe on a gel.)
Experiment [4] in a line: Induction of Ebox DNA (unknown origin) intercalation assessed as reduction in Max/Max/Ebox DNA complex formation at 1.7 to 15 uM by gel shift based orthogonal biochemical assay.
A short description of experiment [5]: Induction of Ebox DNA (unknown origin) intercalation assessed as reduction in MITF/MITF/Ebox DNA complex formation at 1.7 to 15 uM by gel shift based orthogonal biochemical assay.
The target of experiment [6] is T1, Myc proto-oncogene protein. The experiment can be described thus: Inhibition of c-Myc in human NCI-H2171 cells assessed as reduction in c-Myc occupancy at Npm1 binding site at 100 uM incubated for 4 hrs by chromatin immunoprecipitation assay. The class given is cell-based.
In experiment [7] the target is T1, Myc proto-oncogene protein. The experiment is described as follows: Inhibition of c-Myc in human NCI-H2171 cells assessed as reduction in c-Myc occupancy at Mat2a binding site at 100 uM incubated for 4 hrs by chromatin immunoprecipitation assay. Type of experiment: cell-based.
Experiment [8] concerns the target T1, Myc proto-oncogene protein. The experiment is described as follows: Inhibition of c-Myc in human NCI-H2171 cells assessed as reduction in c-Myc occupancy at Hnrnpa2b1 binding site at 100 uM incubated for 4 hrs by chromatin immunoprecipitation assay. Type of experiment: cell-based.
Experiment [9] concerns the target T1, Myc proto-oncogene protein. The experiment can be described thus: Inhibition of c-Myc in human NCI-H2171 cells assessed as reduction in c-Myc occupancy at Rp123a binding site at 100 uM incubated for 4 hrs by chromatin immunoprecipitation assay. Type of experiment: cell-based.
The target of experiment [10] is T1, Myc proto-oncogene protein. The experiment is described as follows: Inhibition of human his6-tagged c-Myc assessed as reduction in c-Myc/Max/Ebox DNA complex formation by gel shift based orthogonal biochemical assay.
For experiment [11], the target named is Protein max (Homo sapiens) (UniProt P61244). The experiment is described as follows: Inhibition of Max in human NCI-H2171 cells assessed as reduction in Max occupancy at Npm1 binding site at 100 uM incubated for 4 hrs by chromatin immunoprecipitation assay. The class given is cell-based.
Protein max (Homo sapiens), sequence (P61244 whole entry): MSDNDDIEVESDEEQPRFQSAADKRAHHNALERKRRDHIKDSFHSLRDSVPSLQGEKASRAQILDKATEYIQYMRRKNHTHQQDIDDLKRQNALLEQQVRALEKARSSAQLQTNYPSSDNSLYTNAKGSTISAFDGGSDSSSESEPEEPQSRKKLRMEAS
The target is the same in experiment [12]. The experiment is described as follows: Inhibition of Max in human NCI-H2171 cells assessed as reduction in Max occupancy at Mat2a binding site at 100 uM incubated for 4 hrs by chromatin immunoprecipitation assay. The class given is cell-based.
For experiment [13] the target is unchanged. The experiment can be described thus: Inhibition of Max in human NCI-H2171 cells assessed as reduction in Max occupancy at Hnrnpa2b1 binding site at 100 uM incubated for 4 hrs by chromatin immunoprecipitation assay. Type of experiment: cell-based.
For experiment [14] the target is unchanged. The experiment is described as follows: Inhibition of Max in human NCI-H2171 cells assessed as reduction in Max occupancy at Rp123a binding site at 100 uM incubated for 4 hrs by chromatin immunoprecipitation assay. Type of experiment: cell-based.
Experiment [15] has as its system NCI-H2171. The experiment can be described thus: Effect on c-Myc protein levels in human NCI-H2171 cells at 100 uM incubated for 4 hrs by […]. The class given is functional, cell-based.
For experiment [16], the system named is NCI-H2171. The experiment is described as follows: Induction of cell differentiation in human NCI-H2171 cells assessed as effect on CD14 gene expression at 12.5 to 25 uM incubated for 4 days by qRT-PCR analysis. Type of experiment: functional, cell-based. (In general: Real-time PCR tracks product formation cycle by cycle.)
In experiment [17] the test system is NCI-H2171. The experiment is described as follows: Induction of cell differentiation in human NCI-H2171 cells assessed as effect on CD11c gene expression at 12.5 to 25 uM incubated for 4 days by qRT-PCR analysis. The class given is functional, cell-based.
The test system of experiment [18] is NCI-H2171. The experiment can be described thus: Induction of cell differentiation in human NCI-H2171 cells assessed as effect on CCl4 gene expression at 12.5 to 25 uM incubated for 4 days by qRT-PCR analysis. Type of experiment: functional, cell-based.
Experiment [19] concerns NCI-H2171. The experiment can be described thus: Induction of cell differentiation in human NCI-H2171 cells assessed as effect on CD11c expression at 12.5 to 25 uM incubated for 4 days by FACS analysis. Type of experiment: functional, cell-based.

A word on the IC50: it is the concentration that gives 50% inhibition.

Calls of active or inactive are those of the source. The calls are words filed in the database; no cut-off is given here.

As to `Cc1ccc(C)n1-c1cc(C(=O)N/N=C/c2ccccc2N2CCOCC2)ccc1C(=O)O`, the IC50 in experiment [1] turned out to be 7.05 µM. In addition, the EC50 result with NCI-H2171 [2] and with MM1.S was “Not Active” in each case.

Take `COc1cccc2c1C(=O)c1c(O)c3c(c(O)c1C2=O)C[C@@](O)(C(=O)CO)C[C@@H]3O[C@H]1C[C@H](N)[C@H](O)[C@H](C)O1`: the outcome in [3], in experiment [4] and in experiment [5] was Active.

In the case of `O=C(O)c1ccccc1-n1cccc1`, the inhibition result in experiment [6], in experiment [7], in [8] and in experiment [9] was “inactive” in each case.

Consider `Cc1ccc(C)n1-c1cc(C(=O)O)ccc1C(=O)O`, for which, in experiment [1], the IC50 turned out to be 0.788 µM. The EC50 entry in the experiment with NCI-H2171 [2] is recorded as “Not Active”.

Regarding `Cc1ccc(C)n1-c1ccccc1C(=O)O`, the inhibition entry in experiment [10] was “Dose-dependent effect”. Also, the inhibition result in experiment [6], in [7], in [8] and in [9] was “Active” throughout. Further, the inhibition result (in experiment [11]; in experiment [12]; in experiment [13]; in [14]; in the experiment with NCI-H2171 [15]) was “inactive” in each case. Besides, the result in the experiment on NCI-H2171 [16], in the experiment with NCI-H2171 [17], with NCI-H2171 [18] and in the experiment with NCI-H2171 [19] was Active.
